Data set [1] has as its system HOXA9 mRNA in MV4; 11 cells. Description: Test 3: inhibition of mRNA transcription, HOXA9. Format: cell-based. The following applies: 20 to 24 hours, fitted with GAPDH; for mrna remaining at 1 µM: Homo sapiens, read-out: mRNA at 1 μM (% control) HOXA9. As for the experimental part: (§1) MV4; 11 cells were obtained from American Type Culture Collection (ATCC). The cells were cultured at 37° C. in the presence of 5% CO2 in RPMI 1640 medium containing 10% fetal bovine serum and 1% penicillin/streptomycin. To the MV4; 11 cells was added each test compound to adjust the final concentration to 1 μmol/L, and the cells were cultured at 37° C. in the presence of 5% CO2 for 20 to 24 hours. After the incubation, the total RNA was extracted from the cells with RNeasy™ Mini Kit (QIAGEN, 74106), and cDNA was synthesized with Superscript™ VILO™ cDNA Synthesis Kit (Invitrogen, #11754250). By using TaqMan™ Gene Expression Master Mix (Applied Biosystems, 4369016) and TaqMan™ probe (Applied Biosystems), the expression level of mRNA was quantified from the obtained cDNA with 7900HT (Applied biosystems). The mRNA expression level of each obtained gene was fitted with the expression level of mRNA of GAPDH.

Data set [2] deals with MEIS1 mRNA in MV4; 11 cells. Description: Test 3: inhibition of mRNA transcription, MEIS1. Format: cell-based. The following applies: for mRNA transcription inhibition activity (in words): MEIS1 and HOXA9, MV4, 1 μM, summary of the table; for mrna remaining at 1 µM: Homo sapiens, read-out: mRNA at 1 μM (% control) MEIS1. As for the experimental part: as §1
Data set [3] addresses Menin-MLL binding (His-Menin1-615 / MLL1-172-FLAG) (Homo sapiens (Human), UniProt O00255). Description: Test 1: inhibition of the Menin-MLL binding (HTRF). The conditions noted are these: for Menin-MLL binding inhibition activity (in words): summary of the table. As to the method: Menin1-615 wherein 6× His tag and HA tag are inserted in the N-terminus, and myc tag is inserted in the C-terminus (hereinafter, referred to as His-Menin1-615), was diluted with an assay buffer (25 mmol/L HEPES, 150 mmol/L NaCl, 1 mmol/L dithiothreitol, 0.5% (w/v) Tween 80, 0.3% (w/v) BSA, 0.3% (w/v) skim milk) to adjust the final concentration Lo 30 nmol/L. The test compounds were also diluted with the assay buffer to adjust each concentration of the test compounds to 0.005 to 5 μmol/L. The prepared His-Menin1-615 and test compounds were added to a light-shielding 384-well low-volume plate (Corning, #4514) in 2 μL/well and 6 μL/well, respectively, and the plate was covered with a lid for light-shielding (Corning, r-3935), and incubated at room temperature for 3 hours. After the incubation, MLL1-172 wherein FLAG tag is inserted in the C-terminus (MLL1-172-FLAG), was separately diluted with the assay buffer to adjust the final concentration to 50 nmol/L. The prepared MLL1-172-FLAG was added to the above plate in 2 μL/well, and the plate was covered with a lid for light-shielding and incubated at room temperature for an hour.
Then, anti-6HIS-d2 antibody (cisbio, 61HISDLA) and anti-FLAGM2-K antibody (cisbio, 61FG2KLA) were diluted with an antibody dilution buffer (50 mmol/L Tris, 150 mmol/L NaCl, 800 mmol/L KF, pH 7.4) to adjust the final concentration to 1.4 μg/mL to prepare an antibody mixture. The prepared antibody mixture was added to the above plate in 10 μL/well, and the plate was covered with a lid and incubated at 4° C. for 17 to 24 hours. After the incubation, the signal was detected with RUBYstar (BMG LABTECH). The binding inhibition rate (%) at each concentration of the test compounds was calculated from the following formula, and the IC50 value was obtained, that corresponds to the concentration of the test compound at which the binding inhibition rate is 50%.
A general note: TR-FRET usually uses a lanthanide donor and a delayed reading to cut background.

A further data set relates to RS4; 11 cells. Description: Test 2: inhibition of cell proliferation, RS4; 11. The class given is cell-based. The following applies: for cell proliferation inhibition activity (in words, good) / cell proliferation inhibitory activity (in words, potent): 11 and MOLM-13 cells, summary of the table; for cell proliferation inhibitory activity (in words, potent): 'especially'; for IC50: 11 cells, cultured 7 days, PrestoBlue. As to the method: (§2) RS4; 11 cells were obtained from American Type Culture Collection (ATCC). The cells were cultured at 37° C. in the presence of 5% CO2 in RPMI 1640 medium containing 10% fetal bovine serum and 1% penicillin/streptomycin. MOLM-13 cells were separately obtained from DSMZ. The cells were cultured at 37° C. in the presence of 5% CO2 in RPMI 1640 medium containing 20% fetal bovine serum and 1% penicillin/streptomycin.
(§3) The cells were plated to a 96-well plate in 2000 cells/well, each test compound was added thereto to adjust the final concentration of DMSO to 0.1% of DMSO, and the cells were cultured for 7 days. After the cultivation, the cell viability was calculated with PrestoBlue™ Cell Viability Reagent (Invitrogen, A13261). The IC50 value was calculated from a survival curve, that corresponds to the concentration of the test compound at which the cell proliferation inhibition rate is 50%.

The nature of data set [4]: Test 4: pharmacokinetic study. Format: in vivo. The conditions noted are these: male SD rat, oral, 10 mg/kg; for AUC(0-t): plasma, 24 hours; for compound-exposure in plasma (in words): summary of the table. As to the method:
The test compound suspended in 0.5% methylcellulose was orally administered to 7-week-old male SD rat in a dose of 10 mg/kg. The blood sample was taken from jugular vein without anesthesia over time for 24 hours. The blood sample was centrifuged to obtain plasma. The plasma was pre-treated by methanol extraction method, and then analyzed with an LC-MS/MS to determine the concentration of the test compound. Based on the data from 0 hour after the administration until the time (t) when there was the final detection in the plasma, AUC was calculated by trapezoidal method.

Another data set deals with MOLM-13 cells. Description: Test 2: inhibition of cell proliferation, MOLM-13. The conditions noted are these: cultured 7 days, PrestoBlue. The class given is cell-based. As for the experimental part:
as §2, §3

The mark [5] stands for this setting: MV4, 20 to 24 hours, fitted with GAPDH.

The values below come from US11325921B2, “Optically active crosslinked cyclic secondary amine derivative” (Sumitomo Dainippon Pharma Co., Ltd., priority 2018, dated 2022).

Read-outs that look alike come from different tables or passages of the source.

Chain of Menin-MLL binding (His-Menin1-615 / MLL1-172-FLAG) (O00255 other isoform, or with tags, fused parts or gaps): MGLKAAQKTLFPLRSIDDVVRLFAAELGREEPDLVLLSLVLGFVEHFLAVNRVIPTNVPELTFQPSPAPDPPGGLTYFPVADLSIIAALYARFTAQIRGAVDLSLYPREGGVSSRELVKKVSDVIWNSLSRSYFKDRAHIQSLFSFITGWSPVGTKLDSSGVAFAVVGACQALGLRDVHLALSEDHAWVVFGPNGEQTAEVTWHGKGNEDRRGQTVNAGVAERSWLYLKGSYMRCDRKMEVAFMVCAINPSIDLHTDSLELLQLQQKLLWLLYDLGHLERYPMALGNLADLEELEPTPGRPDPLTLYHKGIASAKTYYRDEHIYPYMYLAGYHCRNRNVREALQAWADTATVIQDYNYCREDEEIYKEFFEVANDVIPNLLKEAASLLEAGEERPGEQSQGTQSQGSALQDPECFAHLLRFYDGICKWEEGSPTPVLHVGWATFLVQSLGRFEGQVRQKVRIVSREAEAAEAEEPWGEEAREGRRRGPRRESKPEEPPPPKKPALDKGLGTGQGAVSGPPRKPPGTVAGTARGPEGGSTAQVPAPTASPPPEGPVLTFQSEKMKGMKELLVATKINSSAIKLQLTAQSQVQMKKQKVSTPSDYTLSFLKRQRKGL

With “4-{6-[(1S,3S,4S,5S)-5-fluoro-2-azabicyclo[2.2.2]octane-3-carbonyl]-2,6-diazaspiro[3.3]heptan-2-y}-2-(2,2,2-trifluoroethyl)thieno[2,3-b]pyridine-5-carbonitrile [Example 22]”, the “mRNA at 1 μM (% control) HOXA9” value in data set [1] came out at 37.0 % control. Besides, the “mRNA transcription inhibition activity (in words)” value in data set [2] was “showed the mRNA transcription inhibition activity”. In addition, the “mRNA at 1 μM (% control) MEIS1” value in data set [2] (setting [5]) was 18.1 % control. In addition, in data set [3], the IC50 worked out at 6.2 nM and the “Menin-MLL binding inhibition activity (in words)” value was “potent”. Moreover, in the data set on RS4; 11 cells, the “cell proliferation inhibition activity (in words, good)” value (from here on “cell proliferation inhibition activity”) is on record as “good”; the “cell proliferation inhibitory activity (in words, potent)” value is recorded as “potent”; the IC50 amounted to 100 nM. Besides, the AUC(0-t) in data set [4] worked out at 244 ng·h/mL. In addition, inhibition with MOLM-13 cells was half-maximal at 90 nM (IC50).

Take `O=C([C@H]1N[C@H]2CC[C@@H]1[C@@H](F)C2)N1CC2(C1)CN(c1c(C(F)(F)F)cnc3sc(CC(F)(F)F)cc13)C2` [Example 1, {(1S,3S,4S,5S)-5-Fluoro-2-azabicyclo[2.2.2]octan-3-yl}{6-[2-(2,2,2-trifluoroethyl)-5-(trifluoromethyl)thieno[2,3-b]pyridin-4-yl]-2,6-diazaspiro[3.3]heptan-2-yl}methanone]: the mrna remaining at 1 µM worked out at 43.3% in data set [1] and 18% in data set [2] (setting [5]). For the same compound, the “mRNA transcription inhibition activity (in words)” value in data set [2] is listed as “showed the mRNA transcription inhibition activity”. The IC50 amounted to 13.3 nM in data set [3]; 90 nM with RS4; 11 cells (Homo sapiens, 168 h); 80 nM in the data set with MOLM-13 cells (Homo sapiens, 168 h). The “Menin-MLL binding inhibition activity (in words)” value in data set [3] is given as “potent”. In addition, the “cell proliferation inhibition activity” value in the data set with RS4; 11 cells is listed as “good”. The “cell proliferation inhibitory activity (in words, potent)” value in the data set with RS4; 11 cells was “potent”. The AUC(0-t) in data set [4] (read-out: AUC0-t) was found to be 2410 ng·h/mL. For the same compound, the “compound-exposure in plasma (in words)” value in data set [4] is “good compound-exposure in plasma”.

Take `O=C([C@H]1N[C@@H]2CC[C@H]1C2)N1CC2(C1)CN(c1c(C(F)(F)F)cnc3sc(CC(F)(F)F)cc13)C2` [Example 2, [(1R,3S,4S)-2-azabicyclo[2.2.1]heptan-3-yl]{6-[2-(2,2,2-trifluoroethyl)-5-(trifluoromethyl)thieno[2,3-b]pyridin-4-yl]-2,6-diazaspiro[3.3]heptan-2-yl}methanone]: the mrna remaining at 1 µM in data set [1] is 34.3%; in data set [2] (setting [5]), 32%. For the same compound, the IC50 in data set [3] was 17.8 nM; with RS4; 11 cells (Homo sapiens, 168 h), 200 nM; with MOLM-13 cells (Homo sapiens, 168 h) it was 260 nM. For the same compound, the AUC(0-t) in data set [4] (read-out: AUC0-t) came to 1960 ng·h/mL. Further, the “compound-exposure in plasma (in words)” value in data set [4] is recorded as “good compound-exposure in plasma”.

Take `O=C([C@H]1NC2CCC1CC2)N1CC2(C1)CN(c1c(C(F)(F)F)cnc3sc(CC(F)(F)F)cc13)C2` [Example 3, [(3S)-2-azabicyclo[2.2.2]octan-3-yl]{6-[2-(2,2,2-trifluoroethyl)-5-(trifluoromethyl)thieno[2,3-b]pyridin-4-yl]-2,6-diazaspiro[3.3]heptan-2-yl}methanone]: the mrna remaining at 1 µM in data set [1] amounted to 32%; in data set [2] (setting [5]) it was 18.7%. The IC50 in data set [3] worked out at 31.8 nM; in the data set on RS4; 11 cells (Homo sapiens, 168 h), 200 nM; with MOLM-13 cells (Homo sapiens, 168 h), 210 nM. In data set [4] (read-out: AUC0-t), the AUC(0-t) was found to be 1210 ng·h/mL. The “compound-exposure in plasma (in words)” value in data set [4] is given as “good compound-exposure in plasma”.

On to `O=C([C@H]1N[C@H]2C[C@@H]1[C@@H](F)C2)N1CC2(C1)CN(c1c(C(F)(F)F)cnc3sc(CC(F)(F)F)cc13)C2` [Example 9, [(1S,3S,4S,5S)-5-fluoro-2-azabicyclo[2.2.1]heptan-3-yl]{6-[2-(2,2,2-trifluoroethyl)-5-(trifluoromethyl)thieno[2,3-b]pyridin-4-yl]-2,6-diazaspiro[3.3]heptan-2-yl}methanone], for which the figures for the mrna remaining at 1 µM in data set [1] and in data set [2] (setting [5]) were 49.4% and 34.2%, respectively. Further, the IC50 in data set [3] amounted to 31.7 nM; with RS4; 11 cells (Homo sapiens, 168 h), 170 nM; in the data set on MOLM-13 cells (Homo sapiens, 168 h), 280 nM. Besides, the AUC(0-t) in data set [4] (read-out: AUC0-t) is 3750 ng·h/mL. Also, the “compound-exposure in plasma (in words)” value in data set [4] is “good compound-exposure in plasma”.

`N#Cc1cnc2sc(CC(F)(F)F)cc2c1N1CC2(CN(C(=O)[C@H]3N[C@H]4CC[C@@H]3C(F)(F)C4)C2)C1` [Example 23, 4-{6-[(1S,3S,4S)-5,5-difluoro-2-azabicyclo[2.2.2]octane-3-carbonyl]-2,6-diazaspiro[3.3]heptan-2-yl}-2-(2,2,2-trifluoroethyl)thieno[2,3-b]pyridine-5-carbonitrile]: the mrna remaining at 1 µM in data set [1] is 49.3%; in data set [2] (setting [5]), 45.4%. Also, the IC50 in data set [3] is 11 nM; in the data set with RS4; 11 cells (Homo sapiens, 168 h), 280 nM; with MOLM-13 cells (Homo sapiens, 168 h) it was 290 nM. Also, in data set [4] (read-out: AUC0-t), the AUC(0-t) amounted to 668 ng·h/mL.

For `O=C([C@H]1N[C@@H]2CC[C@H]1C2)N1CC2(C1)CN(c1c(C(F)F)cnc3sc(CC(F)(F)F)cc13)C2` [Example 27, [(1R,3S,4S)-2-azabicyclo[2.2.1]heptan-3-yl]{6-[5-(difluoromethyl)-2-(2,2,2-trifluoroethyl)thieno[2,3-b]pyridin-4-yl]-2,6-diazaspiro[3.3]heptan-2-yl}methanone], the mrna remaining at 1 µM is 53.5% in data set [1] and 48.9% in data set [2] (setting [5]). In addition, the “mRNA transcription inhibition activity (in words)” value in data set [2] is on record as “showed the mRNA transcription inhibition activity”. In addition, the IC50 in data set [3] was 26 nM; with RS4; 11 cells (Homo sapiens, 168 h), 560 nM; in the data set on MOLM-13 cells (Homo sapiens, 168 h), 940 nM. The “Menin-MLL binding inhibition activity (in words)” value in data set [3] is “potent”. The “cell proliferation inhibition activity” value with RS4; 11 cells was “good”.

In general, IC50 refers to the concentration needed to halve the response being measured.
